From patent US9108944B2, “Androgen receptor modulators and uses thereof” (ARAGON PHARMACEUTICALS, INC., priority 2010, dated 2015) come the findings set out here.

In this assay the target is T1, AR-VP16 (Homo sapiens, UniProt P10275).
T1 sequence (P10275 560-920 limits assumed): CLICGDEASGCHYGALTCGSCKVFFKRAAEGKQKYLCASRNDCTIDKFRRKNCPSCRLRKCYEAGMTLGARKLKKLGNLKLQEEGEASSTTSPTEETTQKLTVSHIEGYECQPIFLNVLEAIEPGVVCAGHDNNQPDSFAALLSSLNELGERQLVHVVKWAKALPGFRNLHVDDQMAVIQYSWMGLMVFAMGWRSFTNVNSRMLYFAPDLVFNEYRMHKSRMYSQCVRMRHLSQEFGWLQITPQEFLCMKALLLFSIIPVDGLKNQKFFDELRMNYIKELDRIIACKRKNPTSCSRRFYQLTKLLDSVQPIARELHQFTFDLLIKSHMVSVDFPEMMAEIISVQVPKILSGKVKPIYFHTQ
Kind of assay: AR-VP16 DNA Binding Assay, antagonist mode (HepG2 cells, 0.1 nM R1881). The assay is classed as cell-based. The method, then:
Cells were transiently transfected using Lipofectin (Life Technologies) according to the manufacturer's protocol. […] Transfected cells were incubated overnight then treated with ligand. […] For antagonist assays, the compounds were serially diluted and 50 μL of compound with RPMI supplemented with charcoal stripped serum plus methyltrienolone (R1881) were added to the cells. The final R1881 concentration used in the antagonist assays was 0.1 nM. Following 48 hour incubation the medium was removed and the cells were lysed in 40 μL of lysis buffer (25 mM Tris Phosphate, 2 mM CDTA, 10% Glycerol, 0.5% Triton X-100, 2 mM DTT).
The compound `N#Cc1ncc(N2C(=O)C3(CCC3)N(c3ccc(Br)c(F)c3)C2=S)cc1C(F)(F)F` [Compound 4, 5-(5-(4-Bromo-3-fluorophenyl)-8-oxo-6-thioxo-5,7-diazaspiro[3.4]octan-7-yl)-3-(trifluoromethyl)picolinonitrile] returned an IC50 below 1 µM.

For `N#Cc1ncc(N2C(=O)C3(CCC3)N(c3ccc4ccccc4c3)C2=S)cc1C(F)(F)F` [Compound 9, 5-(5-(Naphthalen-2-yl)-8-oxo-6-thioxo-5,7-diazaspiro[3.4]octan-7-yl)-3-(trifluoromethyl)picolinonitrile], the IC50 is below 1 µM.

Consider `N#Cc1ncc(N2C(=O)C3(CCC3)N(c3ccc(-c4ccccc4)cc3)C2=S)cc1C(F)(F)F` [Compound 13, 5-(5-([1,1′-Biphenyl]-4-yl)-8-oxo-6-thioxo-5,7-diazaspiro[3.4]octan-7-yl)-3-(trifluoromethyl)picolinonitrile], for which the IC50 was below 1 µM.

`N#Cc1ncc(N2C(=O)C3(CCC3)N(c3ccc(-c4cccnc4)cc3)C2=S)cc1C(F)(F)F` [Compound 17, 5-(8-Oxo-5-(4-(pyridin-3-yl)phenyl)-6-thioxo-5,7-diazaspiro[3.4]octan-7-yl)-3-(trifluoromethyl)picolinonitrile] registered an IC50 below 1 µM.

For `N#Cc1ncc(N2C(=O)C3(CCC3)N(c3cccnc3)C2=S)cc1C(F)(F)F` [Compound 19, 5-(8-Oxo-5-(pyridin-3-yl)-6-thioxo-5,7-diazaspiro[3.4]octan-7-yl)-3-(trifluoromethyl)picolinonitrile], the IC50 is above 1 µM.

For `Cc1cccc(N2C(=S)N(c3cnc(C#N)c(C(F)(F)F)c3)C(=O)C23CCC3)c1` [Compound 21, 5-(8-Oxo-6-thioxo-5-(m-tolyl)-5,7-diazaspiro[3.4]octan-7-yl)-3-(trifluoromethyl)picolinonitrile], the IC50 was below 1 µM.

`Cc1ccc(N2C(=S)N(c3ccc4nnc(C(F)(F)F)n4n3)C(=O)C23CCC3)cc1` [Compound 30, 6-Thioxo-5-(p-tolyl)-7-(3-(trifluoromethyl)-[1,2,4]triazolo[4,3-b]pyridazin-6-yl)-5,7-diazaspiro[3.4]octan-8-one]: the IC50 was below 1 µM.

`Cc1ccc(N2C(=S)N(c3ccc(C#N)c4ncccc34)C(=O)C23CCC3)cc1` [Compound 36, 5-(8-Oxo-6-thioxo-5-(p-tolyl)-5,7-diazaspiro[3.4]octan-7-yl)quinoline-8-carbonitrile] had an IC50 below 1 µM.

In turn, `CNC(=O)c1ccc(N2C(=S)N(c3ccc(C#N)c4ncccc34)C(=O)C23CCC3)cc1F` [Compound 37, 4-(7-(8-Cyanoquinolin-5-yl)-8-oxo-6-thioxo-5,7-diazaspiro[3.4]octan-5-yl)-2-fluoro-N-methylbenzamide] registered an IC50 below 1 µM.

With `N#Cc1ncc(N2C(=O)C3(CCC3)N(c3ccc(Oc4ccccn4)cc3)C2=S)cc1C(F)(F)F` [Compound 41, 5-(8-Oxo-5-(4-(pyridin-2-yloxy)phenyl)-6-thioxo-5,7-diazaspiro[3.4]octan-7-yl)-3-(trifluoromethyl)picolinonitrile], the IC50 was below 1 µM.

`N#Cc1ncc(N2C(=O)C3(CCC3)N(c3ccc(Oc4cncnc4)cc3)C2=S)cc1C(F)(F)F` [Compound 42, 5-(8-Oxo-5-(4-(pyrimidin-5-yloxy)phenyl)-6-thioxo-5,7-diazaspiro[3.4]octan-7-yl)-3-(trifluoromethyl)picolinonitrile]: the 50% inhibitory concentration (IC50) is below 1 µM.

`CNC(=O)c1ccc(N2C(=S)N(c3cnc(C#N)c(C(F)(F)F)c3)C(=O)C2(C)C)cc1F` [Compound 43, 4-(3-(6-Cyano-5-(trifluoromethyl)pyridin-3-yl)-5,5-dimethyl-4-oxo-2-thioxoimidazolidin-1-yl)-2-fluoro-N-methylbenzamide] yielded an IC50 below 1 µM.

Compound `CNC(=O)c1ccc(N2C(=S)N(c3cnc(C#N)c(C)c3)C(=O)C2(C)C)cc1F` [Compound 47, 4-(3-(6-Cyano-5-methylpyridin-3-yl)-5,5-dimethyl-4-oxo-2-thioxoimidazolidin-1-yl)-2-fluoro-N-methylbenzamide] gave an IC50 below 1 µM.

`N#Cc1ncc(N2C(=O)C3(CCC3)N(c3ccccc3)C2=S)cc1C(F)(F)F` [Compound 48, 5-(8-Oxo-5-phenyl-6-thioxo-5,7-diazaspiro[3.4]octan-7-yl)-3-(trifluoromethyl)picolinonitrile]: the IC50 was below 1 µM.

`N#Cc1ncc(N2C(=O)C3(CCC3)N(c3ccc4ccncc4c3)C2=S)cc1C(F)(F)F` [Compound 52, 5-(5-(Isoquinolin-7-yl)-8-oxo-6-thioxo-5,7-diazaspiro[3.4]octan-7-yl)-3-(trifluoromethyl)picolinonitrile] had an IC50 below 1 µM.

As to `N#Cc1ncc(N2C(=O)C3(CCC3)N(C3CCCCC3)C2=S)cc1C(F)(F)F` [Compound 53, 5-(5-Cyclohexyl-8-oxo-6-thioxo-5,7-diazaspiro[3.4]octan-7-yl)-3-(trifluoromethyl)picolinonitrile], the IC50 was below 1 µM.

`N#Cc1ccc(N2C(=O)C3(CCC3)N(c3ccc(O)c(F)c3)C2=S)c2cccnc12` [Compound 55, 5-(5-(3-Fluoro-4-hydroxyphenyl)-8-oxo-6-thioxo-5,7-diazaspiro[3.4]octan-7-yl)quinoline-8-carbonitrile] had an IC50 below 1 µM.

Compound `N#Cc1ccc(N2C(=S)N(c3cnc(C#N)c(C(F)(F)F)c3)C(=O)C23CCC3)cc1F` [Compound 56, 5-(5-(4-Cyano-3-fluorophenyl)-8-oxo-6-thioxo-5,7-diazaspiro[3.4]octan-7-yl)-3-(trifluoromethyl)picolinonitrile] gave an IC50 below 1 µM.

As for `CNC(=O)c1ccc(N2C(=S)N(c3cnc(C#N)c(Cl)c3)C(=O)C23CCC3)cc1F` [Compound 58, 4-(7-(5-Chloro-6-cyanopyridin-3-yl)-8-oxo-6-thioxo-5,7-diazaspiro[3.4]octan-5-yl)-2-fluoro-N-methylbenzamide], the IC50 was below 1 µM.

`N#Cc1ncc(N2C(=O)C3(CCC3)N(c3ccc(O)cc3F)C2=S)cc1C(F)(F)F` [Compound 64, 5-(5-(2-Fluoro-4-hydroxyphenyl)-8-oxo-6-thioxo-5,7-diazaspiro[3.4]octan-7-yl)-3-(trifluoromethyl)picolinonitrile] registered an IC50 below 1 µM.

`CNC(=O)c1ccc(N2C(=S)N(c3cnc(C#N)c4ccccc34)C(=O)C23CCC3)cc1F` [Compound 66, 4-(7-(1-Cyanoisoquinolin-4-yl)-8-oxo-6-thioxo-5,7-diazaspiro[3.4]octan-5-yl)-2-fluoro-N-methylbenzamide] gave an IC50 below 1 µM.

`N#Cc1ncc(N2C(=O)C3(CCC3)N(c3cccc(CO)c3)C2=S)cc1C(F)(F)F` [Compound 67, 5-(5-(3-(Hydroxymethyl)phenyl)-8-oxo-6-thioxo-5,7-diazaspiro[3.4]octan-7-yl)-3-(trifluoromethyl)picolinonitrile] showed an IC50 below 1 µM.

Take `N#Cc1ccc(N2C(=S)N(c3cnc(C#N)c(C(F)(F)F)c3)C(=O)C23CCC3)c(F)c1` [Compound 70, 5-(5-(4-Cyano-2-fluorophenyl)-8-oxo-6-thioxo-5,7-diazaspiro[3.4]octan-7-yl)-3-(trifluoromethyl)picolinonitrile]: the IC50 is below 1 µM.

For `N#Cc1ncc(N2C(=O)C3(CCC3)N(c3cc(F)ccc3F)C2=S)cc1C(F)(F)F` [Compound 74, 5-(5-(2,5-Difluorophenyl)-8-oxo-6-thioxo-5,7-diazaspiro[3.4]octan-7-yl)-3-(trifluoromethyl)picolinonitrile], the IC50 was below 1 µM.

In turn, `N#Cc1ncc(N2C(=O)C3(CCC3)N(c3c(F)ccc(F)c3F)C2=S)cc1C(F)(F)F` [Compound 75, 5-(8-Oxo-6-thioxo-5-(2,3,6-trifluorophenyl)-5,7-diazaspiro[3.4]octan-7-yl)-3-(trifluoromethyl)picolinonitrile] showed an IC50 below 1 µM.

In the case of `CNC(=O)c1ccc(N2C(=S)N(c3cnc(C#N)c(C(F)(F)F)c3)C(=O)C23CCC3)cc1` [Compound 79, 4-(7-(6-Cyano-5-(trifluoromethyl)pyridin-3-yl)-8-oxo-6-thioxo-5,7-diazaspiro[3.4]octan-5-yl)-N-methylbenzamide], the IC50 is below 1 µM.

`CS(=O)(=O)c1ccc(N2C(=S)N(c3cnc(C#N)c(C(F)(F)F)c3)C(=O)C23CCC3)cc1` [Compound 80, 5-(5-(4-(Methylsulfonyl)phenyl)-8-oxo-6-thioxo-5,7-diazaspiro[3.4]octan-7-yl)-3-(trifluoromethyl)picolinonitrile] came in with an IC50 below 1 µM.

Consider `Cc1ccc(N2C(=S)N(c3ccc(C#N)n4nccc34)C(=O)C23CCC3)cc1` [Compound 82, 4-(8-Oxo-6-thioxo-5-(p-tolyl)-5,7-diazaspiro[3.4]octan-7-yl)pyrazolo[1,5-a]pyridine-7-carbonitrile], for which the IC50 is below 1 µM.

As for `N#Cc1ncc(N2C(=O)C3(CCC3)N(c3ccc4[nH]ncc4c3)C2=S)cc1C(F)(F)F` [Compound 87, 5-(5-(1H-Indazol-5-yl)-8-oxo-6-thioxo-5,7-diazaspiro[3.4]octan-7-yl)-3-(trifluoromethyl)picolinonitrile], the IC50 was below 1 µM.

Compound `CN(Cc1ccncc1)Cc1ccc(N2C(=S)N(c3cnc(C#N)c(C(F)(F)F)c3)C(=O)C23CCC3)cc1` [Compound 92, 5-(5-(4-((Methyl(pyridin-4-ylmethyl)amino)methyl)phenyl)-8-oxo-6-thioxo-5,7-diazaspiro[3.4]octan-7-yl)-3-(trifluoromethyl)picolinonitrile] had an IC50 below 1 µM.
